{"source": "ChEMBL document CHEMBL4706552", "about": "“Discovery of 4-methyl-N-(4-((4-methylpiperazin- 1-yl)methyl)-3-(trifluoromethyl)phenyl)-3-((6-(pyridin-3-yl)-1H-pyrazolo[3,4-d]pyrimidin-4-yl)-oxy)benzamide as a potent inhibitor of RET and its gatekeeper mutant” (Eur J Med Chem, 2020)", "key": {"[1]": {"test": "Oral bioavailability in Sprague-Dawley rat at 10 mg/kg", "format": "ADME, organism-based", "conditions": "in vivo"}, "[2]": {"tested_on": "Kinesin-1 heavy chain/ Tyrosine-protein kinase receptor RET (Homo sapiens), P07949+P33176 [V804M]", "test": "Inhibition of KIF5B-RET V804M mutant fusion protein (unknown origin) expressed in mouse BaF3 cells assessed as reduction in […] measured after 4 hrs by Western blot analysis", "format": "cell-based"}, "[3]": {"molecular_target": "T1, Coiled-coil domain-containing protein 6/Tyrosine-protein kinase receptor RET (Homo sapiens) (UniProt P07949+Q16204)", "T1 sequence (P07949 29-1114 limits assumed)": "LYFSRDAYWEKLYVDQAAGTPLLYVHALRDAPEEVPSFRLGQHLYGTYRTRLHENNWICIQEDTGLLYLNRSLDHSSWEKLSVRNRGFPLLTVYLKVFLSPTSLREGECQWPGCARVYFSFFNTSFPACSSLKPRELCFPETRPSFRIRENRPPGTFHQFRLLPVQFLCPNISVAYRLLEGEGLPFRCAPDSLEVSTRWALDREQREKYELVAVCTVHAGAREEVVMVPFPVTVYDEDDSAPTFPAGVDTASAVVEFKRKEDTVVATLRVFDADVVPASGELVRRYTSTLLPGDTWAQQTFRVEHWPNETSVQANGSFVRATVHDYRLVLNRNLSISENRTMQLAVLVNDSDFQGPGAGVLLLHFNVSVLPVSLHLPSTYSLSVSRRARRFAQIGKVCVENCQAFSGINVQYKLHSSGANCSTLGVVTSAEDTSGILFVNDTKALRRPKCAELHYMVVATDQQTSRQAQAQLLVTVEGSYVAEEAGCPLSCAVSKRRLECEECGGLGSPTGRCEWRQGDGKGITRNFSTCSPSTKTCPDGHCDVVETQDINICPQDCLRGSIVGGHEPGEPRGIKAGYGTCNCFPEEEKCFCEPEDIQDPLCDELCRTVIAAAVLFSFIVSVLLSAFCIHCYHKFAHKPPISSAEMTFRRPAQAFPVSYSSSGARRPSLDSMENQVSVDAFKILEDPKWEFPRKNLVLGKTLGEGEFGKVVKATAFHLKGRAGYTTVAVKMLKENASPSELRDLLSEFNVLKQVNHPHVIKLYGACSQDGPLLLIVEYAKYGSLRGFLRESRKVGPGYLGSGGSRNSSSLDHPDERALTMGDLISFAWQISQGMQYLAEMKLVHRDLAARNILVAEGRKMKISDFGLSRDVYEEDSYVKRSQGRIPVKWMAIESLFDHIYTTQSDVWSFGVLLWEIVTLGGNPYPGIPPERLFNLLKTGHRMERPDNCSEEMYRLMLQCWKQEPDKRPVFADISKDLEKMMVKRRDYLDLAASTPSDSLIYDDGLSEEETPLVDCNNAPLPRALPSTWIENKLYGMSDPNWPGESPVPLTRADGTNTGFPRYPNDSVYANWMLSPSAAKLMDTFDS", "T1 sequence (Q16204 2-474 partner limits assumed)": "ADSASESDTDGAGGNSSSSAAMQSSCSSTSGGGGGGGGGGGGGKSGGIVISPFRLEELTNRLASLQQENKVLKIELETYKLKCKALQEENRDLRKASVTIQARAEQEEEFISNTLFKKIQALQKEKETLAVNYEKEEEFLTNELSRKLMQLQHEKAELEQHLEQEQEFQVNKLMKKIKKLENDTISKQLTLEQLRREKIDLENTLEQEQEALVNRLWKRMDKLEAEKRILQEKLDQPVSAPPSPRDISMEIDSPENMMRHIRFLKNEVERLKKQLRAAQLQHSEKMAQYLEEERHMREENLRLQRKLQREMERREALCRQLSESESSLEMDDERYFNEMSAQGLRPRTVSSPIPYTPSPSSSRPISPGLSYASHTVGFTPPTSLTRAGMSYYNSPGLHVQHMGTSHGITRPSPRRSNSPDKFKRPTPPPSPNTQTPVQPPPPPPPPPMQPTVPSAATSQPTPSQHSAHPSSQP", "test": "Inhibition of CCDC6-RET fusion protein (unknown origin) expressed in mouse BaF3 cells assessed as reduction in ERK phosphorylation at 10 to 500 nM measured after 4 hrs by Western blot analysis", "format": "cell-based", "conditions": "dose 10-500 nM"}, "BaF3 [4]": {"tested_on": "BaF3", "test": "Inhibition of CCDC6-RET V804M mutant fusion protein (unknown origin) expressed in mouse BaF3 cells assessed as reduction in SHC phosphorylation at 10 to 500 nM measured after 4 hrs by Western blot analysis", "format": "cell-based", "conditions": "Homo sapiens, dose 10-500 nM"}, "[5]": {"test": "AUC (0 to t) in Sprague-Dawley rat at 10 mg/kg, po", "format": "ADME, organism-based", "design": "dose 10 mg/kg", "conditions": "in vivo"}, "KYSE-450": {"tested_on": "KYSE-450", "test": "Antiproliferative activity against human KYSE-450 cells at 3.3 uM measured after 48 hrs by MTS assay", "format": "functional", "conditions": "read-out: GI"}, "[6]": {"molecular_target": "T1, Coiled-coil domain-containing protein 6/Tyrosine-protein kinase receptor RET (Homo sapiens)", "test": "Inhibition of CCDC6-RET fusion protein (unknown origin) expressed in mouse BaF3 cells assessed as reduction in RET phosphorylation at 10 to 500 nM measured after 4 hrs by Western blot analysis", "format": "cell-based", "conditions": "dose 10-500 nM"}, "[7]": {"molecular_target": "Kinesin-1 heavy chain/ Tyrosine-protein kinase receptor RET (Homo sapiens) (UniProt P07949+P33176)", "sequence (P07949 29-1114 limits assumed)": "as the sequence (P07949 29-1114 limits assumed) above", "sequence (P33176 2-963 partner limits assumed)": "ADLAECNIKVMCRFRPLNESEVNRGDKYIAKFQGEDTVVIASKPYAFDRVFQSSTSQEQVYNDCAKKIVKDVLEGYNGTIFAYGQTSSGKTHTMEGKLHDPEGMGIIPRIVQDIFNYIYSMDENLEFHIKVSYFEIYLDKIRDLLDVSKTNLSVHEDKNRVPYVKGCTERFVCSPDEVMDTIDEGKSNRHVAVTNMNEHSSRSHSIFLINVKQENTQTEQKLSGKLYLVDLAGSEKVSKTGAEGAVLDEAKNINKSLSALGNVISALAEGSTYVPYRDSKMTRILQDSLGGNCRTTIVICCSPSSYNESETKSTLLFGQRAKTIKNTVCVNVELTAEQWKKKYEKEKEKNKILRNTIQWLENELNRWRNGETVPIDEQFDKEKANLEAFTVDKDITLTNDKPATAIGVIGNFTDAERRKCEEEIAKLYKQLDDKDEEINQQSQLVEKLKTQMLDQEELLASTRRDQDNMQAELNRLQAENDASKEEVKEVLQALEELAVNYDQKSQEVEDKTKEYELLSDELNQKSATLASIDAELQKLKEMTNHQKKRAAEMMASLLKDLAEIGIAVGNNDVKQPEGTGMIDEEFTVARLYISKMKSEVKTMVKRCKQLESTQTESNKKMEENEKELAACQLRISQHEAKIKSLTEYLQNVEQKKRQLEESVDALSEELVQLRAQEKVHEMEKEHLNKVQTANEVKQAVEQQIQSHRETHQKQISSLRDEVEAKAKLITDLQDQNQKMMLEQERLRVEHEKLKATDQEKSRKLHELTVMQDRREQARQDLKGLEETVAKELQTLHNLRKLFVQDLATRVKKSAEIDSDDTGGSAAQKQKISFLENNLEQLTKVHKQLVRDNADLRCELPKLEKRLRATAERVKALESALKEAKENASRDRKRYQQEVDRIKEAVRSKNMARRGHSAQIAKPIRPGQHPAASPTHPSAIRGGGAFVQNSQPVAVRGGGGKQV", "test": "Inhibition of KIF5B-RET fusion protein (unknown origin) expressed in mouse BaF3 cells assessed as reduction in RET autophosphorylation at 50 nM measured after 4 hrs by Western blot analysis", "format": "cell-based"}, "Mus musculus [8]": {"tested_on": "Mus musculus", "test": "In vivo inhibition of KIF5B-RET V804M mutant fusion protein in BALB/c mouse implanted with KIF5B-RET V804M mutant fusion protein expressing mouse BaF3 cells assessed as reduction in RET phosphorylation at 30 to 50 mg/kg, iv administered daily for 7 days and measured 4 hrs post last dose by Western blot analysis", "format": "functional, organism-based", "conditions": "dose 30-50 mg/kg, time 7.0 day"}, "MDA-MB-231": {"tested_on": "MDA-MB-231", "test": "Antiproliferative activity against human MDA-MB-231 cells measured after 48 hrs by MTS assay", "format": "functional"}, "NCI-H3122": {"tested_on": "NCI-H3122", "test": "Antiproliferative activity against human NCI-H3122 cells measured after 48 hrs by MTS assay", "format": "functional"}, "[9]": {"molecular_target": "Proto-oncogene tyrosine-protein kinase receptor Ret (Homo sapiens, UniProt P07949, V804L)", "sequence (P07949 29-1114 V804L limits assumed)": "as the sequence (P07949 29-1114 limits assumed) above, with V776L counted along it", "test": "Inhibition of recombinant human N-terminal GST-HIS6 fused RET V804L mutant C-terminal domain (H658 to S1114 residues) expressed in Sf9 insect cells using TRK-C-derived peptide as substrate in presence of [33P]-ATP by filter binding assay"}, "[10]": {"test": "AUC (0 to infinity) in Sprague-Dawley rat at 1 mg/kg, iv", "format": "ADME, organism-based", "design": "route intravenous, time infinity, dose 1 mg/kg", "conditions": "in vivo"}, "BaF3 [11]": {"tested_on": "BaF3", "test": "Inhibition of CCDC6-RET V804M mutant fusion protein (unknown origin) expressed in mouse BaF3 cells assessed as reduction in AKT phosphorylation at 10 to 500 nM measured after 4 hrs by Western blot analysis", "format": "cell-based", "conditions": "Homo sapiens, dose 10-500 nM"}, "BaF3 [12]": {"tested_on": "BaF3", "test": "Induction of apoptosis in KIF5B-RET V804M mutant fusion protein expressing mouse BaF3 cells implanted in BALB/c mouse assessed as increase in cleaved caspase-3 level at 30 to 50 mg/kg, iv administered once daily for 7 days measured 4 hrs post last dose by H and E staining based immunohistochemical analysis", "format": "functional, organism-based", "conditions": "dose 30-50 mg/kg, time 7.0 day"}, "Mus musculus [13]": {"tested_on": "Mus musculus", "test": "In vivo inhibition of KIF5B-RET fusion protein in BALB/c mouse implanted with KIF5B-RET fusion protein expressing mouse BaF3 cells assessed as reduction in SHC phosphorylation at 30 to 50 mg/kg, iv administered daily for 7 days and measured 4 hrs post last dose by Western blot analysis", "format": "functional, organism-based", "conditions": "dose 30-50 mg/kg, time 7.0 day"}, "[14]": {"test": "Toxicity in BALB/c mouse implanted with KIF5B-RET V804M mutant fusion protein expressing mouse BaF3 cells assessed as body weight loss at 30 to 50 mg/kg, iv administered daily for 7 days measured daily during compound dosing", "format": "organism-based", "conditions": "in vivo, 168 h, dose 30-50 mg/kg, time 7 day"}, "[15]": {"molecular_target": "T2, Proto-oncogene tyrosine-protein kinase receptor Ret (Homo sapiens, UniProt P07949)", "T2 sequence (P07949 whole entry, the tested form may be a part)": "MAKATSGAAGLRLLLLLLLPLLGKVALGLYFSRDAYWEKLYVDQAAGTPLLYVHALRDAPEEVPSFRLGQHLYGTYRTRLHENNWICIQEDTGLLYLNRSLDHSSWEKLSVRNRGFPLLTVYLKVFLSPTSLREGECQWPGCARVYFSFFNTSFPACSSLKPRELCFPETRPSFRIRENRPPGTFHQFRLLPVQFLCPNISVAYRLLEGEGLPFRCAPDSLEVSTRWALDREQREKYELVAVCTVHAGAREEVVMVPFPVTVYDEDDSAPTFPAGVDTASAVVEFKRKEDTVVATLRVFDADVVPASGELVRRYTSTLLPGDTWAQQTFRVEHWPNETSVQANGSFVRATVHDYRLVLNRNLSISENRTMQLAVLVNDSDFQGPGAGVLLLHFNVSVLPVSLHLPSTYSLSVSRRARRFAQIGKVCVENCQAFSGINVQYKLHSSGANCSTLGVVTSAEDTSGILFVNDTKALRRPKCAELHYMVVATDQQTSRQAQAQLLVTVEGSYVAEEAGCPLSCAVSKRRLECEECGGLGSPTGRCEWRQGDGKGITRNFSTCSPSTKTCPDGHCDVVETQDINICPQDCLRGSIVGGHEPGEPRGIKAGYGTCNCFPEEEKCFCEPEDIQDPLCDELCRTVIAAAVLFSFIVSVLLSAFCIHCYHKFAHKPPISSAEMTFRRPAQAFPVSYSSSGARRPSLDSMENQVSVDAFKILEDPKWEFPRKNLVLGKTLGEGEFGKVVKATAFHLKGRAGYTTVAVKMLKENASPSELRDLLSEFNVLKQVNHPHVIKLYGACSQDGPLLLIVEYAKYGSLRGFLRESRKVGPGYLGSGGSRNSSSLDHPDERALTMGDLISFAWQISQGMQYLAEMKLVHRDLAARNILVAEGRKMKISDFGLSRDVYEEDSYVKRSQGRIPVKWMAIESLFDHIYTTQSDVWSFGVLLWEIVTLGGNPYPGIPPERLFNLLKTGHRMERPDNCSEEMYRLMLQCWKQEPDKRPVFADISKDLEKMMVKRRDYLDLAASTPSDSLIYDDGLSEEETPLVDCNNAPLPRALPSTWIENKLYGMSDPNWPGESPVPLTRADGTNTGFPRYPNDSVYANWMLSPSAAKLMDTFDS", "test": "Binding affinity to wild-type human partial length RET (E713 to D1014 residues) expressed in bacterial expression system assessed as residual binding level at 1 uM by kinomescan method relative to control"}, "BaF3 [16]": {"tested_on": "BaF3", "test": "Antitumor activity against KIF5B-RET V804M mutant fusion protein expressing mouse BaF3 cells implanted in BALB/c mouse assessed as tumor growth inhibition at 30 to 50 mg/kg, iv administered once daily for 7 days relative to control", "format": "functional", "conditions": "dose 30-50 mg/kg, time 7 day"}, "[17]": {"tested_on": "Kinesin-1 heavy chain/ Tyrosine-protein kinase receptor RET (Homo sapiens), P07949+P33176 [V804M]", "test": "Inhibition of KIF5B-RET V804M mutant fusion protein (unknown origin) expressed in mouse BaF3 cells assessed as reduction in RET autophosphorylation at 100 nM measured after 4 hrs by Western blot analysis", "format": "cell-based"}, "Mus musculus [18]": {"tested_on": "Mus musculus", "test": "In vivo inhibition of KIF5B-RET fusion protein in BALB/c mouse implanted with KIF5B-RET fusion protein expressing mouse BaF3 cells assessed as reduction in RET phosphorylation at 30 to 50 mg/kg, iv administered daily for 7 days and measured 4 hrs post last dose by Western blot analysis", "format": "functional, organism-based", "conditions": "dose 30-50 mg/kg, time 7.0 day"}, "[19]": {"molecular_target": "T2, Proto-oncogene tyrosine-protein kinase receptor Ret", "test": "Inhibition of RET phosphorylation in human LC-2-ad cells", "format": "cell-based"}, "[20]": {"test": "Tmax in Sprague-Dawley rat at 1 mg/kg, iv", "format": "ADME, organism-based", "conditions": "in vivo"}, "[21]": {"test": "AUC (0 to t) in Sprague-Dawley rat at 1 mg/kg, iv", "format": "ADME, organism-based", "design": "dose 1 mg/kg", "conditions": "in vivo"}, "HepG2": {"tested_on": "HepG2", "test": "Antiproliferative activity against human HepG2 cells at 3.3 uM measured after 48 hrs by MTS assay", "format": "functional", "conditions": "read-out: GI"}, "[22]": {"molecular_target": "Kinesin-1 heavy chain/ Tyrosine-protein kinase receptor RET (Homo sapiens, UniProt P07949)", "sequence (P07949 whole entry, the tested form may be a part)": "as above", "sequence (P33176 whole entry, further chain, the tested form may be a part)": "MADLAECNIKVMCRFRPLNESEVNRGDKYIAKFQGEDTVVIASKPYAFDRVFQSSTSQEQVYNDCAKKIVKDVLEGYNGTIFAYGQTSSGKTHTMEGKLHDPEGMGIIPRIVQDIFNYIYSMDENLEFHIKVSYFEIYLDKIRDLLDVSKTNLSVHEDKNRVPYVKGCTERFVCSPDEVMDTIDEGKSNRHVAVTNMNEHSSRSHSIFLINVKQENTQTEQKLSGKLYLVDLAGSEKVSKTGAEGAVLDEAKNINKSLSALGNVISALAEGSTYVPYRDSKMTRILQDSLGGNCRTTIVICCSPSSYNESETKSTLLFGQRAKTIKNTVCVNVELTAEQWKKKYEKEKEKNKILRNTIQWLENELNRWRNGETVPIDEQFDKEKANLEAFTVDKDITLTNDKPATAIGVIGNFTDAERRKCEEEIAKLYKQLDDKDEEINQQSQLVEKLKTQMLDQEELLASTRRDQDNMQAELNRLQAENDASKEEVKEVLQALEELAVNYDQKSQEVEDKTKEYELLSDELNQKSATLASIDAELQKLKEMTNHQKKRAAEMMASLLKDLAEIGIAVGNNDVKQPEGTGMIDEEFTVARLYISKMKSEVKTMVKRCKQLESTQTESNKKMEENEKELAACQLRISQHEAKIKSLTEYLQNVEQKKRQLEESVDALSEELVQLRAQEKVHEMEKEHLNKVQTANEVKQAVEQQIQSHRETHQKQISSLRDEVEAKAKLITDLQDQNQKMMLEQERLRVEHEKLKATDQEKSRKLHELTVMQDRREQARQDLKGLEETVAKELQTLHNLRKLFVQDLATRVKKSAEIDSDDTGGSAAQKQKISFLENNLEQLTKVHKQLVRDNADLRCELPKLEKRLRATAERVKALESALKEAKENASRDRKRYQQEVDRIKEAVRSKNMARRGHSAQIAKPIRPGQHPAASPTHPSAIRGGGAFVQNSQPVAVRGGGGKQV", "test": "Inhibition of KIF5B-RET fusion protein (unknown origin) by radiometric assay"}, "[23]": {"molecular_target": "T2, Proto-oncogene tyrosine-protein kinase receptor Ret", "test": "Inhibition of recombinant wild-type human N-terminal GST-HIS6 fused RET C-terminal domain (H658 to S1114 residues) expressed in Sf9 insect cells using TRK-C-derived peptide as substrate in presence of [33P]-ATP by filter binding assay"}, "[24]": {"tested_on": "Proto-oncogene tyrosine-protein kinase receptor Ret (Homo sapiens), P07949 [V804L]", "sequence (P07949 whole entry V804L, the tested form may be a part)": "as the sequence (P07949 whole entry, the tested form may be a part) above, with V804L counted along it", "test": "Binding affinity to wild-type human partial length RET V804L mutant (E713 to D1014 residues) expressed in bacterial expression system assessed as residual binding level at 1 uM by kinomescan method relative to control"}, "BaF3 [25]": {"tested_on": "BaF3", "test": "Inhibition of CCDC6-RET V804M mutant fusion protein (unknown origin) expressed in mouse BaF3 cells assessed as reduction in cell proliferation measured after 48 hrs by MTS assay", "format": "cell-based", "conditions": "Homo sapiens"}, "[26]": {"test": "Antiproliferative activity against human SKGT4 cells measured after 48 hrs by MTS assay", "format": "functional"}, "[27]": {"test": "Half life in Sprague-Dawley rat at 10 mg/kg, po", "format": "ADME, organism-based", "conditions": "in vivo"}}, "note": "Activity calls are given as the source filed them. The calls are words filed in the database; no cut-off is given here.", "data": [{"molecule": "Cc1ccc(C(=O)Nc2ccc(CN3CCN(C)CC3)c(C(F)(F)F)c2)cc1Oc1nc(-c2cccnc2)nc2[nH]ncc12", "values": [{"measurement": "bioavailability", "setting": "[1]", "result": 3, "unit": "%"}, {"measurement": "inhibition", "setting": "[2]", "result": "Dose-dependent effect"}, {"measurement": "inhibition", "setting": "[3]", "result": "Active"}, {"measurement": "inhibition", "setting": "BaF3 [4]", "result": "Active"}, {"measurement": "AUC(0-t)", "setting": "[5]", "result": 2110, "unit": "ng·h/mL"}, {"measurement": "inhibition of growth at 3.3 µM", "setting": "KYSE-450", "result": 39, "unit": "%"}, {"measurement": "inhibition", "setting": "[6]", "result": "Active"}, {"measurement": "inhibition", "setting": "[7]", "result": "Dose-dependent effect"}, {"measurement": "inhibition", "setting": "Mus musculus [8]", "result": "Dose-dependent effect"}, {"measurement": "GI50", "setting": "MDA-MB-231", "result": 2430, "unit": "nM"}, {"measurement": "GI50", "setting": "NCI-H3122", "result": 5680, "unit": "nM"}, {"measurement": "IC50", "setting": "[9]", "result": 15.1, "unit": "nM"}, {"measurement": "AUC(0-inf)", "setting": "[10]", "result": 7010, "unit": "ng·h/mL"}, {"measurement": "inhibition", "setting": "BaF3 [11]", "result": "Active"}, {"measurement": "Activity", "setting": "BaF3 [12]", "result": "Active"}, {"measurement": "inhibition", "setting": "Mus musculus [13]", "result": "Dose-dependent effect"}, {"measurement": "Activity", "setting": "[14]", "result": "Non-Toxic"}, {"measurement": "Activity", "setting": "[15]", "result": 0.05, "unit": "%"}, {"measurement": "TGI", "setting": "BaF3 [16]", "result": ">60", "unit": "%"}, {"measurement": "inhibition", "setting": "[17]", "result": "Dose-dependent effect"}, {"measurement": "inhibition", "setting": "Mus musculus [18]", "result": "Dose-dependent effect"}, {"measurement": "inhibition", "setting": "[19]", "result": "Active"}, {"measurement": "Tmax", "setting": "[20]", "result": 4.98, "unit": "min"}, {"measurement": "AUC(0-t)", "setting": "[21]", "result": 6960, "unit": "ng·h/mL"}, {"measurement": "inhibition of growth at 3.3 µM", "setting": "HepG2", "result": 33, "unit": "%"}, {"measurement": "IC50", "setting": "[22]", "result": 8.86, "unit": "nM"}, {"measurement": "IC50", "setting": "[23]", "result": 3.98, "unit": "nM"}, {"measurement": "Activity", "setting": "[24]", "result": 0.8, "unit": "%"}, {"measurement": "GI50", "setting": "BaF3 [25]", "result": 45, "unit": "nM"}, {"measurement": "GI50", "setting": "[26]", "result": 5370, "unit": "nM"}, {"measurement": "half-life", "setting": "[27]", "result": 7.59, "unit": "h"}]}]}
